The results in this text go back to US20210101874A1, “MICROBIOCIDAL OXADIAZOLE DERIVATIVES” (SYNGENTA PARTICIPATIONS AG, priority 2017, published 2021).

Bounds are passed on as bounds.

One experiment deals with Puccinia recondita f. sp. Tritici. The experiment can be described thus: Puccinia recondita f. sp. tritici / wheat / leaf disc preventative (brown rust). It is filed as in vivo. Particulars: foliar, 200 ppm in the applied formulation, wheat leaf segments cv. Kanzler, inoculated 1 day after application, compared to untreated, assessed 7 to 9 days after application, read-out: disease control. How it is done:
Leaf disks or leaf segments of various plant species are cut from plants grown in a greenhouse. The cut leaf disks or segments are placed in multiwell plates (24-well format) onto water agar. The leaf disks are sprayed with a test solution before (preventative) or after (curative) inoculation. Compounds to be tested are prepared as DMSO solutions (max. 10 mg/ml) which are diluted to the appropriate concentration with 0.025% Tween20 just before spraying. The inoculated leaf disks or segments are incubated under defined conditions (temperature, relative humidity, light, etc.) according to the respective test system. A single evaluation of disease level is carried out 3 to 14 days after inoculation, depending on the pathosystem. Percent disease control relative to the untreated check leaf disks or segments is then calculated. Wheat leaf segments cv. Kanzler were placed on agar in multiwell plates (24-well format) and sprayed with the formulated test compound diluted in water. The leaf disks were inoculated with a spore suspension of the fungus 1 day after application. The inoculated leaf segments were incubated at 19° C. and 75% relative humidity (rh) under a light regime of 12 hours light/12 hours darkness in a climate cabinet and the activity of a compound was assessed as percent disease control compared to untreated when an appropriate level of disease damage appears in untreated check leaf segments (7 to 9 days after application). The following compounds at 200 ppm in the applied formulation give at least 80% disease control in this test when compared to untreated control leaf disks under the same conditions, which show extensive disease development.
As for `CCNS(=O)(=O)N(Cc1ccc(-c2noc(C(F)(F)F)n2)cc1)OC` [Compound 1.18, 3-[4-[[ethylsulfamoyl (methoxy)amino]methyl]phenyl]-5-(trifluoromethyl)-1,2,4-oxadiazole], the pest or weed control at 200 ppm was no less than 80%.
Still for that read-out and setting: to `CCCNS(=O)(=O)N(Cc1ccc(-c2noc(C(F)(F)F)n2)cc1)OC` [Compound 1.22, 3-[4-[[methoxy (propylsulfamoyl)amino]methyl]phenyl]-5-(trifluoromethyl)-1,2,4-oxadiazole] belongs no less than 80%; to `CCN(Cc1ccc(-c2noc(C(F)(F)F)n2)cc1)S(=O)(=O)N1CCCC1` [Compound 1.32, N-ethyl-N-[[4-[5-(trifluoromethyl)-1,2,4-oxadiazol-3-yl]phenyl]methyl] pyrrolidine-1-sulfonamide], no less than 80%.
Turning to `COC(=O)CS(=O)(=O)N(Cc1ccc(-c2noc(C(F)(F)F)n2)cc1)OC` [Compound 1.57, methyl 2-[methoxy-[[4-[5-(trifluoromethyl)-1,2,4-oxadiazol-3-yl]phenyl]methyl]sulfamoyl]acetate], the pest or weed control at 200 ppm was no less than 80%.
In the case of `CON(Cc1ccc(-c2noc(C(F)(F)F)n2)cc1)S(=O)(=O)c1ccn(C)n1` [Compound 1.88, N-methoxy-1-methyl-N-[[4-[5-(trifluoromethyl)-1,2,4-oxadiazol-3-yl]phenyl]methyl] pyrazole-3-sulfonamide], the pest or weed control at 200 ppm is no less than 80%.
Still for that read-out and setting: next, `O=S(=O)(Cc1ccccc1)NCc1ccc(-c2noc(C(F)(F)F)n2)c(F)c1` [Compound 3.22, N-[[3-fluoro-4-[5-(trifluoromethyl)-1,2,4-oxadiazol-3-yl]phenyl]methyl]-1-phenyl-methanesulfonamide]: no less than 80%; `O=S(=O)(Cc1ccccc1)NCc1ccc(-c2noc(C(F)(F)F)n2)cc1F` [Compound 3.23, N-[[2-fluoro-4-[5-(trifluoromethyl)-1,2,4-oxadiazol-3-yl]phenyl]methyl]-1-phenyl-methanesulfonamide]: no less than 80%.
On the same count and under the same terms, next, `O=S(=O)(NCc1ccc(-c2noc(C(F)(F)F)n2)cc1F)c1ccccc1` [Compound 3.32, N-[[2-fluoro-4-[5-(trifluoromethyl)-1,2,4-oxadiazol-3-yl]phenyl]methyl] benzenesulfonamide]: no less than 80%.

Another experiment deals with Glomerella lagenarium (Colletotrichum lagenarium). The experiment can be described thus: Glomerella lagenarium (Colletotrichum lagenarium) liquid culture / cucumber / preventative (anthracnose). It counts as cell-based. The following applies: Colletotrichum orbiculare; 20 ppm in the applied formulation; conidia in PDB nutrient broth, 24° C.; 3 to 4 days after application; compared to untreated; read-out: disease control (inhibition of growth measured photometrically). How it is done:
Mycelia fragments or conidia suspensions of a fungus prepared either freshly from liquid cultures of the fungus or from cryogenic storage, are directly mixed into nutrient broth. DMSO solutions of the test compound (max. 10 mg/ml) are diluted with 0.025% Tween20 by a factor of 50 and 10 µl of this solution is pipetted into a microtiter plate (96-well format). The nutrient broth containing the fungal spores/mycelia fragments is then added to give an end concentration of the tested compound. The test plates are incubated in the dark at 24° C. and 96% relative humidity. The inhibition of fungal growth is determined photometrically after 2 to 7 days, depending on the pathosystem, and percent antifungal activity relative to the untreated check is calculated. Conidia of the fungus from cryogenic storage are directly mixed into nutrient broth (PDB—potato dextrose broth). After placing a (DMSO) solution of test compound into a microtiter plate (96-well format), the nutrient broth containing the fungal spores is added. The test plates are incubated at 24° C. and the inhibition of growth is measured photometrically 3 to 4 days after application. The following compounds at 20 ppm in the applied formulation give at least 80% disease control in this test when compared to untreated control under the same conditions, which show extensive disease development.
In the case of `O=S(=O)(Cc1ccccc1)N(Cc1ccc(-c2noc(C(F)(F)F)n2)cc1)C1CC1` [Compound 1.4, N-cyclopropyl-1-phenyl-N-[[4-[5-(trifluoromethyl)-1,2,4-oxadiazol-3-yl]phenyl]methyl] methanesulfonamide], the inhibition (as a rule, how much of the control response was suppressed) at 20 ppm was no less than 80%.
On the same count and under the same terms, to `CCNS(=O)(=O)N(Cc1ccc(-c2noc(C(F)(F)F)n2)cc1)OC` [Compound 1.18, 3-[4-[[ethylsulfamoyl (methoxy)amino]methyl]phenyl]-5-(trifluoromethyl)-1,2,4-oxadiazole] belongs no less than 80%; to `CCCNS(=O)(=O)N(Cc1ccc(-c2noc(C(F)(F)F)n2)cc1)OC` [Compound 1.22, 3-[4-[[methoxy (propylsulfamoyl)amino]methyl]phenyl]-5-(trifluoromethyl)-1,2,4-oxadiazole], no less than 80%.
Same read-out and setting: to `CCN(Cc1ccc(-c2noc(C(F)(F)F)n2)cc1)S(=O)(=O)c1ccccc1` [Compound 1.24, N-ethyl-N-[[4-[5-(trifluoromethyl)-1,2,4-oxadiazol-3-yl]phenyl]methyl] benzenesulfonamide] belongs no less than 80%; to `CCCN(Cc1ccc(-c2noc(C(F)(F)F)n2)cc1)S(=O)(=O)CCC` [Compound 1.26, N-propyl-N-[[4-[5-(trifluoromethyl)-1,2,4-oxadiazol-3-yl]phenyl]methyl] propane-1-sulfonamide], no less than 80%.
`CCN(Cc1ccc(-c2noc(C(F)(F)F)n2)cc1)S(=O)(=O)CC1CC1(Cl)Cl` (stereo not drawn) [Compound 1.31, 1-(2,2-dichlorocyclopropyl)-N-ethyl-N-[[4-[5-(trifluoromethyl)-1,2,4-oxadiazol-3-yl]phenyl]methyl] methanesulfonamide]: the inhibition at 20 ppm was no less than 80%.
On the same count and under the same terms, to `CCN(Cc1ccc(-c2noc(C(F)(F)F)n2)cc1)S(=O)(=O)N1CCCC1` [Compound 1.32, N-ethyl-N-[[4-[5-(trifluoromethyl)-1,2,4-oxadiazol-3-yl]phenyl]methyl] pyrrolidine-1-sulfonamide] belongs no less than 80%; to `COCCS(=O)(=O)N(Cc1ccc(-c2noc(C(F)(F)F)n2)cc1)OC` [Compound 1.40, N,2-dimethoxy-N-[[4-[5-(trifluoromethyl)-1,2,4-oxadiazol-3-yl]phenyl]methyl] ethanesulfonamide], no less than 80%; to `CCCCS(=O)(=O)N(C)Cc1ccc(-c2noc(C(F)(F)F)n2)cc1` [Compound 1.55, N-methyl-N-[[4-[5-(trifluoromethyl)-1,2,4-oxadiazol-3-yl]phenyl]methyl] butane-1-sulfonamide], no less than 80%.
Same read-out and setting: to `CNS(=O)(=O)N(Cc1ccc(-c2noc(C(F)(F)F)n2)cc1)OC` [Compound 1.58, 3-[4-[[methoxy(methylsulfamoyl)amino]methyl]phenyl]-5-(trifluoromethyl)-1,2,4-oxadiazole] belongs no less than 80%.
Turning to `CCCN(Cc1ccc(-c2noc(C(F)(F)F)n2)cc1)S(=O)(=O)CCC(=O)OC` [Compound 1.72, methyl 3-[propyl-[[4-[5-(trifluoromethyl)-1,2,4-oxadiazol-3-yl]phenyl]methyl]sulfamoyl]propanoate], the inhibition at 20 ppm is no less than 80%.
Take `C/C=C/S(=O)(=O)N(CCC)Cc1ccc(-c2noc(C(F)(F)F)n2)cc1` [Compound 1.75, (E)-N-propyl-N-[[4-[5-(trifluoromethyl)-1,2,4-oxadiazol-3-yl]phenyl]methyl] prop-1-ene-1-sulfonamide]: the inhibition at 20 ppm is no less than 80%.
Still for that read-out and setting: to `CCCN(Cc1ccc(-c2noc(C(F)(F)F)n2)cc1)S(=O)(=O)Cc1ccccc1` [Compound 1.77, 1-phenyl-N-propyl-N-[[4-[5-(trifluoromethyl)-1,2,4-oxadiazol-3-yl]phenyl]methyl] methanesulfonamide] belongs no less than 80%; to `CCCN(Cc1ccc(-c2noc(C(F)(F)F)n2)cc1)S(=O)(=O)CC` [Compound 1.78, N-propyl-N-[[4-[5-(trifluoromethyl)-1,2,4-oxadiazol-3-yl]phenyl]methyl] ethanesulfonamide], no less than 80%.
As to `C=CCS(=O)(=O)N(Cc1ccc(-c2noc(C(F)(F)F)n2)cc1)OC` [Compound 1.92, N-methoxy-N-[[4-[5-(trifluoromethyl)-1,2,4-oxadiazol-3-yl]phenyl]methyl] prop-2-ene-1-sulfonamide], the inhibition at 20 ppm is no less than 80%.
Still for that read-out and setting: to `C/C=C/S(=O)(=O)N(Cc1ccc(-c2noc(C(F)(F)F)n2)cc1)OC` [Compound 1.94, (E)-N-methoxy-N-[[4-[5-(trifluoromethyl)-1,2,4-oxadiazol-3-yl]phenyl]methyl] prop-1-ene-1-sulfonamide] belongs no less than 80%; to `CC(C)N(Cc1ccc(-c2noc(C(F)(F)F)n2)cc1)S(=O)(=O)Cc1ccccc1` [Compound 1.99, N-isopropyl-1-phenyl-N-[[4-[5-(trifluoromethyl)-1,2,4-oxadiazol-3-yl]phenyl]methyl) methanesulfonamide], no less than 80%.
As to `COC(=O)CS(=O)(=O)NCc1ccc(-c2noc(C(F)(F)F)n2)cc1` [Compound 2.11, methyl 2-[[4-[5-(trifluoromethyl)-1,2,4-oxadiazol-3-yl]phenyl]methyl-sulfamoyl] acetate], the inhibition at 20 ppm was no less than 80%.
On the same count and under the same terms, next, `COC(=O)CS(=O)(=O)NCc1ccc(-c2noc(C(F)(F)F)n2)c(F)c1` [Compound 2.20, methyl 2-[[3-fluoro-4-[5-(trifluoromethyl)-1,2,4-oxadiazol-3-yl]phenyl]methyl-sulfamoyl] acetate]: no less than 80%.
The same measure, in the same setting: next, `CCCCS(=O)(=O)NCc1ccc(-c2noc(C(F)(F)F)n2)cc1F` [Compound 2.23, N-[[2-fluoro-4-[5-(trifluoromethyl)-1,2,4-oxadiazol-3-yl]phenyl]methyl] butane-1-sulfonamide]: no less than 80%.
On the same count and under the same terms, to `Cc1ccc(S(=O)(=O)NCc2ccc(-c3noc(C(F)(F)F)n3)c(F)c2)s1` [Compound 3.15, N-[[3-fluoro-4-[5-(trifluoromethyl)-1,2,4-oxadiazol-3-yl]phenyl]methyl]-5-methyl-thiophene-2-sulfonamide] belongs no less than 80%.
Turning to `Cc1ccc(S(=O)(=O)NCc2ccc(-c3noc(C(F)(F)F)n3)cc2F)s1` [Compound 3.25, N-[[2-fluoro-4-[5-(trifluoromethyl)-1,2,4-oxadiazol-3-yl]phenyl]methyl]-5-methyl-thiophene-2-sulfonamide], the inhibition at 20 ppm was no less than 80%.
